Patent US20260035750A1, “TRANSCRIPTIONAL REGULATORS OF THE TEAD FAMILY” (Sanofi, priority 2022, published 2026)
“Also recorded” adds a separate entry of the source.

Legend:
[1] = tested on: TEAD-dependent transcription; experiment: TEAD-500 score as pharmacodynamic marker in NCI-H226 xenograft tumors; assay type: in vivo; settings: SCID mice, 200 mg/kg BID, in 24 h, sufficient for tumor regression
Experimental: (§1) TEAD-dependent transcription was scored in single samples as the difference Rp-Rn, where Rp is the mean fractional rank of the positive TEAD-effectors, and Rn, that of the negative effectors.
(§2) In vivo efficacy studies of the K-975 compound were performed in SCID mice inoculated subcutaneously into the right flank with 3×10^6 MSTO-211H or NCI-H226 cells. Mice bearing around 200 mm3 subcutaneous MSTO-211H tumors or 150 mm3 subcutaneous NCI-H226 tumors were randomly assigned to […] of 8 mice/group and treated with either vehicle or K-975 compound twice daily at 30, 100, and 200 mg/kg for 18 consecutive days. Tumor perpendicular diameters were measured twice a week with a caliper, and tumor volume (V) was calculated according to the following equation: V (mm3)=(d2 (mm2)×D (mm))/2, where d is the smallest, and D the largest perpendicular tumor diameters.
Fresh tumors were preserved in RNAlater (Thermo Fisher) and frozen at […]. Copurification of miRNA and total RNA was performed using a miRNeasy Mini Kit (QIAGEN, 217004). The RNA concentration and purity were evaluated with an ND-1000 spectrophotometer (NanoDrop, Thermo Fisher). Quality metrics are the RNA Integrity Number (RIN) and DV200 value (% of RNA fragments with a length≥200 nt). 100 ng total RNA per sample was used as input material for the library preparation. […]

TEAD = experiment: TEAD-500 score (TEAD-dependent transcription) in NCI-H226 cells grown in vitro; assay type: cell-based, human; settings: NCI-H226 malignant mesothelioma cells in vitro, treated for 24 hours
Description: as §1
We considered the most abundant transcript of a gene as the representative of the expression of the gene. We, therefore, retain the expression level of the major transcript (maximum level-value per gene and sample, level values may be expression-array signals, RNA sequencing counts, fragments per kilobase per million counts (FPKM), transcripts per million (TPM), or whatever other metric is conveniently used) and discarded the values of all other transcripts. The maximum expression levels of the genes were transformed into fractional ranks by dividing with the maximum expression value of all genes (most abundant gene) observed within a sample. No other normalization is required.
All cell lines were grown at 37° C. under five percent CO2. MSTO-211H (#CRL-2081), NCI-H226 (#CRL-5826), NCI-H2052 (#CRL-5915), NCI-H28 (#CRL-5820), and HCT116 (#CCL-247) were purchased from the American Type Culture Collection (ATCC, Manassas, VA, USA) and cultured according to supplier's recommendation. […]
Fresh tumors were preserved in RNAlater (Thermo Fisher) and frozen at […]. […] The RNA concentration and purity were evaluated with an ND-1000 spectrophotometer (NanoDrop, Thermo Fisher). […]

CYR61 = CYR61 (CCN1) marker of TEAD activity, RNA and protein (ELISA) level, in NCI-H226 cells; assay type: cell-based, human; settings: NCI-H226 cells in vitro, treated for 24 hours
Experimental: The latter protein markers were measured by ELISA assays. Cell lysates were diluted 1/500 in cell lysis buffer. A minimum of four biologic replicates were analyzed for each model. In the reading plate, standards and samples are run in duplicate. hCYR61 was assessed using the human Cyr61 Quantikine™ Colorimetric Sandwich ELISA Kit (R&D Systems, Minneapolis, MN). Diluted lysates were processed and analyzed as described in the manufacturer's instructions. Absorbance values were read using a microplate reader set to 450 nm.
So did the RNA and protein levels of the classical secreted marker of Hippo pathway activity, CYR61 (FIG. 3C).

NCI-H226 cells = experiment: In vivo efficacy in subcutaneous NCI-H226 xenografts in SCID mice; settings: NCI-H226 xenograft
Experimental: Female CB17/Icr-Prkdc^scid/IcrIcoCrl mice (6-8 weeks old) were bred at Charles River (Les Oncins, France), housed in Sanofi AAALAC accredited animal facilities, and were provided with irradiated food and filtered water ad libitum.
as §2
The same type of events was observed when SCID mice implanted with malignant mesothelioma parental NCI-H226 cells were treated with 200 mg/kg BID of the benchmark TEAD-inhibitor K-975 (Kaneda A et al. Am J Cancer Res. 2020; 10(12):4399-4415) for 17 consecutive days (FIG. 5). […] The TEAD-500 score correlates, therefore, with tumor behavior under treatment and can be used as a marker of the pharmacodynamics or efficacy of a drug.

C=CC(=O)Nc1ccc(C)c(Oc2ccc(Cl)cc2)c1 [K-975]
inhibition of the TEAD-dependent transcription (TEAD-500 score) [1]: 30-40% | TEAD-500 score (TEAD): Dose-dependent regression; also recorded: regressed in a dose-dependent manner | RNA level of CYR61 (CCN1) (CYR61): inhibition; also recorded: regressed in a dose-dependent manner | protein level of CYR61 (CCN1) (CYR61): inhibition; also recorded: regressed in a dose-dependent manner | tumor behavior under treatment (NCI-H226 cells; 30 mg/kg BID): inactive | tumor behavior under treatment (NCI-H226 cells; 100 mg/kg BID): almost tumor stasis | ΔT/ΔC (NCI-H226 cells; 100 mg/kg BID): 12 | tumor behavior under treatment (NCI-H226 cells; 200 mg/kg BID, 17 consecutive days): tumor regression
